From patent US5629298A, “Adenosine as a positive inotrop in the compromised heart” (University of Massachusetts Medical Center, priority 1995, dated 1997)

System: myocardial membrane adenylyl cyclase
Experiment: Adenylyl cyclase activity of crude ventricular myocardial membranes
Assay type: biochemical, rat
Method: Crude ventricular myocardial membranes were prepared according to the following procedure. Isolated rat hearts were perfused with 5 ml of ice cold saline (0.9% NaCl) to wash out the blood, minced into 2-3 mm^3 cubes, and placed in 10 ml of homogenization buffer (HB) containing 10 mM HEPES (pH 7.4), 1 mM ethylenediamine-tetraacetic acid (EDTA), 1 mM DTT and 10 μg/ml soybean trypsin inhibitor. The suspension was homogenized with a PT-10 PolytronTM generator at a speed of 6 for two 15-second periods separated by 15 seconds. The homogenized material was also treated with 2 strokes of a glass/teflon motor driven Potter-Elvehjen homogenizer operated at 1/2 full speed. Upon addition of 4.7 ml of HB containing 1.25M sucrose the homogenate was mixed and centrifugated at 1,000 x g for 15 minutes. The supernatant was filtered through 4 layers of cheesecloth and 14.5 ml HB was added. […] Membranes were assayed immediately for adenylyl cyclase activity. […] The formed [α-^32 […] separated from the [α-^32 P]dATP by sequential chromatography using columns of cation exchange resin AG 50W-X4 (200-400 mesh) and neutral alumnia AG 7 (100-200 mesh) after the methods of Salomon (Adv. Cyclic Nucleotide Res. 10:35 (1979). All results were corrected for column recovery of [^3 […] ranged between 60 and 90%. The activity of the adenylyl cyclase is expressed as pmol [α-^32 […] formed/min/mg protein.

| Structure (SMILES) | adenylyl cyclase activity above basal levels (adenosine at 0 to 1 mM, absence or presence of 1 μM DPCPX, myocardium membranes) | adenylyl cyclase activity (homogenate of the rat heart ventricular myocardium, only at 1 MM CGS-21680) |
| --- | --- | --- |
| Nc1ncnc2c1ncn2[C@@H]1O[C@H](CO)[C@@H](O)[C@H]1O [adenosine] | did not increase |  |
| CCNC(=O)[C@H]1O[C@@H](n2cnc3c(N)nc(NCCc4ccc(CCC(=O)O)cc4)nc32)[C@H](O)[C@@H]1O [CGS-21680, 2-p-(2-carboxy-ethyl)phenethyl-amino-5'-N-ethylcarboxamido-adenosine] |  | increased |
